Measured values taken from article PMC4610730 (Journal of medicinal chemistry, 2015).

How the values were obtained:
[1] = LC-MS analysis of aged DMSO stocks; assay type: physicochemical; conditions: DMSO stock, LC-MS on day 38; for Decomposition product observed: bis-enone (equivalent to 8) / Decomposition product observed: carboxylic acid (equivalent to 6) / Decomposition product observed: lactam (equivalent to 5): Table 2; for Decomposition product observed: carboxylic acid (analogous to 6) / Decomposition product observed: enone (analogous to 8) / Decomposition product observed: lactam (analogous to 5): Table 1
APOBEC3A (A3A) = APOBEC3A (A3A) (Homo sapiens, UniProt P31941); test: Fluorescence-based ssDNA C-to-U DNA deaminase assay, A3A; assay type: biochemical
Sequence of APOBEC3A (A3A) (P31941 whole entry): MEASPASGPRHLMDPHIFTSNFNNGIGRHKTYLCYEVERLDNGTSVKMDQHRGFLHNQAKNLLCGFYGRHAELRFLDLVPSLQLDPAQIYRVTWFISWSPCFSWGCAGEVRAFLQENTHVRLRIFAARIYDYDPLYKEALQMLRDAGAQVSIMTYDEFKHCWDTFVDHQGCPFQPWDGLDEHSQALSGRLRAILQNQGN

APOBEC3G (A3G) = APOBEC3G (A3G) (Homo sapiens, UniProt Q9HC16); test: Fluorescence-based ssDNA C-to-U DNA deaminase assay, A3G; assay type: biochemical; conditions: for A3G inhibitory activity: substructures of the decomposition products, data not shown
Sequence of APOBEC3G (A3G) (Q9HC16 whole entry): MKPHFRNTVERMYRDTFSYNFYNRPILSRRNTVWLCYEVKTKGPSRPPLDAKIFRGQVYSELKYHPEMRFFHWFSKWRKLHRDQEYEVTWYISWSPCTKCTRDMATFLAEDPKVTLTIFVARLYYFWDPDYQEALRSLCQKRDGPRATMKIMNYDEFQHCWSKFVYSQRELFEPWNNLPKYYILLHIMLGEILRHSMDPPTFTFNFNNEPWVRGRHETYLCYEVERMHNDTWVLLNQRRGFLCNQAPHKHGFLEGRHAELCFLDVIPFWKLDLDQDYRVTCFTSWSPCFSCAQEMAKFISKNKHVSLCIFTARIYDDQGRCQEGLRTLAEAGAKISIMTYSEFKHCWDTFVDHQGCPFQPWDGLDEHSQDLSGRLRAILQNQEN

[2] = Aging of 1 under photochemical conditions; assay type: physicochemical; conditions: 10 mM DMSO, visible light 300 W, N2 atmosphere (balloon, 1 atm), 9 h, no sensitizer
[3] = Aging of DMSO stocks of 1 under varied conditions; assay type: physicochemical
[4] = Storage stability of isolated decomposition products; assay type: physicochemical; conditions: significant periods of time
[5] = freshly synthesized and solubilized, day 0, dose response up to 200 μM

Row | Compound | Decomposition product observed: bis-enone (equivalent to 8) [1] | Decomposition product observed: carboxylic acid (equivalent to 6) [1] | Decomposition product observed: lactam (equivalent to 5) [1] | Decomposition product observed: carboxylic acid (analogous to 6) [1] | Decomposition product observed: enone (analogous to 8) [1] | Decomposition product observed: lactam (analogous to 5) [1] | other results
1 | O=C(NNC(=O)c1cc(-c2ccco2)nc2ccccc12)NC1CCCCC1 [compound 30] | - | + 357.1 (357.1) | + 329.1 (329.1) |  |  |  | 
2 | CC(=O)/C=C\C(=O)c1cc(C(=O)Nc2nnc(-c3ccncc3)s2)c2ccccc2n1 [compound 8, (Z)-2-(4-oxopent-2-enoyl)-N-(5-(pyridin-4-yl)-1,3,4-thiadiazol-2-yl)quinoline-4-carboxamide] |  |  |  |  |  |  | stability for storage in organic solvents [4]: not stable
3 | O=C(O)c1cc(O)nc2ccccc12 [2-Hydroxyquinonline-4-carboxylic acid] |  |  |  |  |  |  | A3G inhibitory activity (APOBEC3G (A3G)): inactive
4 | O=C(O)c1cc(-c2ccco2)nc2ccccc12 [compound 14] |  |  |  | - | - | + 190.2 (190.1) | 
5 | Cc1ccc(-c2cc(C(=O)N3CCN(S(C)(=O)=O)CC3)c3ccccc3n2)o1 [compound 31] | + 416.1 (416.1) | + 364.1 (364.1) | + 336.1 (336.1) |  |  |  | 
6 | Cc1ccc(-c2cc(C(=O)O)c3ccccc3n2)o1 [compound 12, 2-(5-Methylfuran-2-yl)quinoline-4-carboxylic acid] |  |  |  | + 218.1 (218.1) | + 270.1 (270.1) | + 190.1 (190.1) | 
7 | Nc1nnc(-c2ccncc2)s1 [compound 4, 5-(pyridin-4-yl)-1,3,4-thiadiazol-2-amine] |  |  |  |  |  |  | A3G inhibitory activity (APOBEC3G (A3G)): inactive
8 | O=C(O)c1cc(-c2ccco2)cc2ccccc12 [compound 22] |  |  |  | - | + 254.1 (254.1) | - | 
9 | Cc1ccc(-c2cc(C(=O)O)c3ccccc3c2)o1 [compound 20] |  |  |  | - | + 269.2 (269.1) | - | 
10 | c1coc(-c2ccc3ccccc3n2)c1 [compound 24] |  |  |  | - | - | - | 
11 | Cc1ccc(-c2cc(C(=O)Nc3nnc(-c4ccncc4)s3)ccn2)o1 [compound 15] |  |  |  | + 328.2 (328.0) | + 380.2 (380.1) | - | 
12 | Cc1ccc(-c2cc(C(=O)O)ccn2)o1 [compound 16] |  |  |  | - | + 220.1 (220.1) | - | 
13 | COc1ccc(CCNC(=O)c2cc(-c3ccc(C)o3)nc3ccccc23)cc1 [compound 28] | + 403.2 (403.2) | + 351.2 (351.1) | + 323.1 (323.1) |  |  |  | 
14 | Cc1ccc(-c2cc(C(=O)NC3CCCCC3)c3ccccc3n2)o1 [compound 27] | + 351.2 (351.2) | + 299.1 (299.1) | + 271.1 (271.1) |  |  |  | 
15 | O=C(Nc1nnc(-c2ccncc2)s1)c1cc(-c2ccco2)cc2ccccc12 [compound 21] |  |  |  | + 377.2 (377.1) | + 415.1 (415.1) | - | 
16 | Cc1ccc(-c2cc(C(=O)NC(C)C3CCCO3)c3ccccc3n2)o1 (stereo not drawn) [compound 25] | + 367.2 (367.2) | + 315.1 (315.1) | + 287.1 (287.1) |  |  |  | 
17 | O=C(O)c1cc(C(=O)O)c2ccccc2n1 [quinoline-2,4-carboxylic acid] |  |  |  |  |  |  | A3G inhibitory activity (APOBEC3G (A3G)): inactive

The next lines start with results.

Row | Decomposition product observed: bis-enone (equivalent to 8) [1] | Decomposition product observed: carboxylic acid (equivalent to 6) [1] | Decomposition product observed: lactam (equivalent to 5) [1] | Decomposition product observed: carboxylic acid (analogous to 6) [1] | Decomposition product observed: enone (analogous to 8) [1] | Decomposition product observed: lactam (analogous to 5) [1] | Compound | other results
18 |  |  |  | + 378.2 (378.1) | - | + 350.2 (350.1) | O=C(Nc1nnc(-c2ccncc2)s1)c1cc(-c2ccco2)nc2ccccc12 [compound 13] | 
19 | + 430.1 (430.1) | + 378.1 (378.1) | + 350.1 (350.1) | + 378.1 (378.1) | + 430.1 (430.1) | + 350.1 (350.1) | Cc1ccc(-c2cc(C(=O)Nc3nnc(-c4ccncc4)s3)c3ccccc3n2)o1 [compound 1, 2-(5-Methylfuran-2-yl)-N-(5-(pyridin-4-yl)-1,3,4-thiadiazol-2-yl)quinoline-4-carboxamide] | inhibitory activity against A3A (APOBEC3A (A3A); aged DMSO stock of synthesized compound): never recovered; A3A inhibition (APOBEC3A (A3A); [5]): no inhibition; A3G inhibition (APOBEC3G (A3G); [5]): no inhibition; decomposition under irradiation [2]: virtually no decomposition; decomposition of DMSO stock ([3]; 10 mM DMSO stock aged in the dark): no decomposition; decomposition of DMSO stock ([3]; 10 mM DMSO stock aged in the presence of NaN3): no decomposition; decomposition of DMSO stock ([3]; 10 mM DMSO stock aged under inert conditions (N2)): drastically reduced decomposition; rate of decomposition versus storage temperature ([3]; DMSO stock stored at -20 °C vs. rt vs. 37 °C, data not shown): same rate regardless of the temperature
20 | + 403.1 (403.1) | + 351.2 (351.1) | + 323.1 (323.1) |  |  |  | Cc1ccc(-c2cc(C(=O)NCc3ccc4c(c3)OCO4)c3ccccc3n2)o1 [compound 29] | 
21 | + 461.1 (461.1) | + 409.1 (409.1) | + 381.1 (381.1) |  |  |  | COC(=O)c1cc(NC(=O)c2cc(-c3ccc(C)o3)nc3ccccc23)cc(C(=O)OC)c1 [compound 32] | 
22 |  |  |  | - | + 226.2 (226.2) | - | Cc1ccc(-c2ccc3ccccc3n2)o1 [compound 23] | 
23 |  |  |  | - | - | - | O=C(Nc1nnc(-c2ccncc2)s1)c1ccnc(-c2ccco2)c1 [compound 17] | 
24 |  |  |  | + 377.2 (377.1) | + 429.2 (429.1) | - | Cc1ccc(-c2cc(C(=O)Nc3nnc(-c4ccncc4)s3)c3ccccc3c2)o1 [compound 19] | 
25 |  |  |  | - | - | - | O=C(O)c1ccnc(-c2ccco2)c1 [compound 18] | 
26 | + 360.2 (360.1) | + 308.1 (308.1) | + 280.1 (280.1) |  |  |  | Cc1cccc(NC(=O)c2cc(-c3ccc(C)o3)nc3ccccc23)n1 [compound 26] | 
